In ChEMBL document CHEMBL1201862, “PubChem BioAssay data set” (2004):
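Step 1: Grow cells in 96-well plates. Step 2: Expose to compound for 48 hours at 5 concentrations. Step 3: Interpolate endpoints linearly; if unreached, use highest concentration. At the GI50, growth is halved.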 Calls of active or inactive are those of the source. Cut-off read from the data, not from the text of the source: active = GI50 up to about 1.1 µM and inactive = higher.

Columns and labels:
Assay in all cases: DTP human tumour cell line panel, 48 h
[1] = test system: MDA-MB-435
[2] = test system: SK-OV-3
[3] = test system: U-251
[4] = test system: UACC-62
[5] = test system: UACC-257
[6] = test system: HOP-62
[7] = test system: SF-539
[8] = test system: CCRF-CEM
[9] = test system: A549
[10] = test system: SW-620
[11] = test system: NCI/ADR-RES
[12] = test system: MOLT-4
[13] = test system: DU-145
[14] = test system: NCI-H226

Measured: GI50

O=C1OC2(C(F)(F)F)Oc3ccccc3CN2C12CCCCC2 (stereo unspecified)
inactive: [1] 39.6 µM | [2] 26.7 µM | [3] 26 µM | [4] 28 µM | [5] 27 µM | [6] 29.2 µM | [7] 33.4 µM | [8] 25.1 µM | [9] 28.6 µM | [10] 35.6 µM | [11] 31.1 µM | [12] 18.1 µM | [13] 32.3 µM | [14] 27.4 µM

CC(C)(C)OC(=O)NCC(=O)N(CCc1ccc(Cl)c(Cl)c1)CCN1CCCC1
inactive: [1] 13.9 µM | [2] 14.9 µM | [3] 15.2 µM | [4] 17.4 µM | [5] 15.7 µM | [6] 13.5 µM | [7] 16.8 µM | [8] 10.6 µM | [9] 17.7 µM | [10] 16.6 µM | [11] 15.3 µM | [12] 8.41 µM | [13] 16.9 µM | [14] 15 µM

CCOC1=NC(C(F)(F)F)(C(F)(F)F)N=C(/N=C(/N)N(C)C(C(C)C)P(=O)(OC(C)C)OC(C)C)O1 (stereo unspecified)
inactive: [1] > 100 µM | [2] > 100 µM | [3] 64.9 µM | [4] 54.7 µM | [5] 70.3 µM | [6] > 100 µM | [7] > 100 µM | [8] 23.8 µM | [9] > 100 µM | [10] 49.5 µM | [11] 31.3 µM | [12] 20.1 µM | [13] > 100 µM | [14] > 100 µM

Cc1cc2nc3c(N)nn(CCN(C)C)c3nc2cc1C
inactive: [1] 37.9 µM | [2] 45.2 µM | [3] 33.1 µM | [4] 39.5 µM | [5] 41.7 µM | [6] 26.4 µM | [7] 28.1 µM | [8] 42.3 µM | [9] 31.9 µM | [10] 38.7 µM | [11] 33.3 µM | [12] 41.8 µM | [13] 40.8 µM | [14] 11.2 µM

CC1=NN(c2nc(N)nc(CSCc3nc(N)nc(N(C)C)n3)n2)C(C)(C)C1
inactive: [1] > 100 µM | [2] > 100 µM | [3] > 100 µM | [4] > 100 µM | [5] > 100 µM | [6] > 100 µM | [7] > 100 µM | [8] > 100 µM | [9] > 100 µM | [10] > 100 µM | [11] > 100 µM | [12] > 100 µM | [13] > 100 µM | [14] > 100 µM

CSc1nc(-c2ccc(C)cc2)c(C#N)c(=O)[nH]1
inactive: [1] > 100 µM | [2] > 100 µM | [3] > 100 µM | [4] > 100 µM | [5] > 100 µM | [6] > 100 µM | [7] > 100 µM | [8] > 100 µM | [9] > 100 µM | [10] > 100 µM | [11] > 100 µM | [12] > 100 µM | [13] > 100 µM | [14] > 100 µM

O=C(OCCN=c1c2ccccc2ccc2ccccc12)c1cc([N+](=O)[O-])cc([N+](=O)[O-])c1
inactive: [1] > 100 µM | [2] > 100 µM | [3] > 100 µM | [4] > 100 µM | [5] > 100 µM | [6] > 100 µM | [7] > 100 µM | [8] > 100 µM | [9] > 100 µM | [10] > 100 µM | [11] > 100 µM | [12] > 100 µM | [13] > 100 µM | [14] > 100 µM

C[C@]12C[C@@H](OC(=O)[C@]1(C)O)[C@@H]([C@]1(O)CC[C@H]3[C@@H]4C[C@H]5O[C@]56C[C@H]5O[C@H]5C(=O)[C@]6(C)[C@H]4CC[C@@]31C)C2
inactive: [1] > 50 µM | [2] > 50 µM | [3] > 50 µM | [4] > 50 µM | [5] > 50 µM | [6] > 50 µM | [7] > 50 µM | [8] > 50 µM | [9] > 50 µM | [10] > 50 µM | [11] > 50 µM | [12] > 50 µM | [13] > 50 µM | [14] > 50 µM

O=c1c2c(F)c(F)c(F)c(F)c2sc2nccn12
inactive: [1] 14.9 µM | [2] 18.9 µM | [3] 14.9 µM | [4] 14.7 µM | [5] 13 µM | [6] 22.4 µM | [7] 17.5 µM | [8] 11.3 µM | [9] 19.5 µM | [10] 17.3 µM | [11] 26.8 µM | [12] 3.01 µM | [13] 19.9 µM | [14] 25.2 µM

CC(=O)O[C@H]1[C@@H](N2CCOCC2)C[C@H]2[C@@H]3CC=C4C[C@@H](N5CCCC5)CC[C@]4(C)[C@H]3CC[C@@]21C
inactive: [1] > 100 µM | [2] > 100 µM | [3] > 100 µM | [4] > 100 µM | [5] > 100 µM | [6] > 100 µM | [7] 73.8 µM | [8] > 100 µM | [9] > 100 µM | [10] > 100 µM | [11] > 100 µM | [12] > 100 µM | [13] > 100 µM | [14] > 100 µM

NS(=O)(=O)c1cc(C(=O)O)c(Cl)c([N+](=O)[O-])c1Cl
inactive: [1] > 100 µM | [2] > 100 µM | [3] > 100 µM | [4] > 100 µM | [5] > 100 µM | [6] > 100 µM | [7] > 100 µM | [8] > 100 µM | [9] > 100 µM | [10] > 100 µM | [11] > 100 µM | [12] > 100 µM | [13] > 100 µM | [14] > 100 µM

C#C[C@]1(O)CC[C@H]2[C@@H]3CCC4=C/C(=N\OCCN5CCCCC5)CC[C@]4(C)[C@H]3CC[C@@]21C
inactive: [1] 2.24 µM | [2] 16 µM | [3] 9.68 µM | [4] 3.32 µM | [5] 3.98 µM | [6] 11 µM | [7] 4.11 µM | [8] 4.54 µM | [9] 7.08 µM | [10] 4.33 µM | [11] 3.52 µM | [12] 3.9 µM | [13] 8.51 µM | [14] 17.2 µM

CCCCn1c(C)c(C(=O)CC)c(C(=O)NCCN2CCN(c3ccccc3Cl)CC2)c1C
inactive: [1] 18.9 µM | [2] 19.4 µM | [3] 16.6 µM | [4] 15.8 µM | [5] 13.4 µM | [6] 20.2 µM | [7] 18.1 µM | [8] 55.1 µM | [9] 16.3 µM | [10] 47.1 µM | [11] 16 µM | [12] 18.7 µM | [13] 20.1 µM | [14] 20.3 µM

COc1cc(/C=C2\N=C(c3ccccc3)N(c3ccc(S(=O)(=O)Nc4nccs4)cc3)C2=O)ccc1O
inactive: [1] 95.3 µM | [2] > 100 µM | [3] 75.5 µM | [4] 43.9 µM | [5] > 100 µM | [6] 61.8 µM | [7] 79.4 µM | [8] 70.5 µM | [9] > 100 µM | [10] 77.6 µM | [11] > 100 µM | [12] > 100 µM | [13] > 100 µM | [14] 71 µM

CC1CN=C(Nc2ccc(F)c(Cl)c2)S1 (stereo unspecified)
inactive: [1] > 100 µM | [2] > 100 µM | [3] 95.3 µM | [4] > 100 µM | [5] 86.5 µM | [6] > 100 µM | [7] > 100 µM | [8] 29.7 µM | [9] 88.9 µM | [10] > 100 µM | [11] 42.5 µM | [12] > 10 µM | [13] > 100 µM | [14] > 100 µM

Clc1ccc(-c2nn3c(-c4ccncc4)nnc3s2)cc1
inactive: [1] > 100 µM | [2] 40.1 µM | [3] 25.9 µM | [4] > 100 µM | [5] > 100 µM | [6] 20.8 µM | [7] > 100 µM | [8] > 100 µM | [9] > 100 µM | [10] > 100 µM | [11] > 100 µM | [12] > 100 µM | [13] 42.9 µM | [14] > 100 µM

O=C(O)c1cc2cc(OCc3ccccc3)ccc2[nH]1
inactive: [1] > 100 µM | [2] > 100 µM | [3] > 100 µM | [4] > 100 µM | [5] 5.06 µM | [6] > 100 µM | [7] > 100 µM | [8] > 100 µM | [9] > 100 µM | [10] > 100 µM | [11] > 100 µM | [12] > 100 µM | [13] > 100 µM | [14] 23.4 µM

C=CCOC1=C(OC(C)=O)C(C2COC(C)(C)O2)OC1=O (stereo unspecified)
inactive: [1] 21.9 µM | [2] > 100 µM | [3] 26.5 µM | [4] 22.2 µM | [5] 18.2 µM | [6] > 100 µM | [7] 33.2 µM | [8] 17.4 µM | [9] 24 µM | [10] 16.5 µM | [11] 31.5 µM | [12] 21.6 µM | [13] 36.6 µM | [14] 95.3 µM

O=C(N/C(=C\c1ccccc1)C1Nc2ccccc2C(=O)O1)c1ccccc1 (stereo unspecified)
inactive: [1] 34.5 µM | [2] 55.6 µM | [3] 22.4 µM | [4] 27.5 µM | [5] 20.6 µM | [6] 20.4 µM | [7] 20.2 µM | [8] 19.1 µM | [9] 87.5 µM | [10] 23.6 µM | [11] 25.9 µM | [12] 18.7 µM | [13] 54.1 µM | [14] 25.6 µM
